# Data: PMC8011197, “A polo-like kinase modulates cytokinesis and flagella biogenesis in Giardia lamblia” (Parasites & Vectors, 2021)
# Assays:
# Format in all cases: cell-based
# [1] = tested on: Giardia lamblia trophozoites; assay: Growth inhibition of Giardia trophozoites, hemocytometer count after 24 h; details: Giardia duodenalis, GW 5–15 μM, 2 × 10^4 cells/ml, read-out: IC50, inhibition of growth of G. lamblia
# Protocol: After treatment for 24 h, the number of parasites per milliliter was determined using a hemocytometer. Giardia trophozoites treated with 0.3% dimethyl sulfoxide (DMSO) were used as controls.
# [2] = tested on: Giardia lamblia trophozoites; assay: Nuclear phenotype (number, position, condensation of nuclei) of Giemsa-stained cells; details: for Percentage of cells, 1N / Percentage of cells, 2N, abnormal / Percentage of cells, 2N, normal / Percentage of cells, 3N / Percentage of cells, 4N / Percentage of cells, >4N: 5 µM GW
# Protocol: For the microscopic observation of cells, the cells were attached to slides, air-dried and fixed with 100% methanol for 10 min, following which they were stained with 10% Giemsa solution for 40 min and washed with distilled water. After mounting with dibutyl phthalate xylene (Sigma-Aldrich, St. Louis, MO, USA), the slides were observed under an Axiovert 200 microscope (Carl Zeiss AG, Oberkochen, Germany). For each condition, at least 300 cells were examined to determine the number and position of the nuclei. Among cells with two nuclei in normal positions, the number of cells showing nuclei condensation was also recorded. Data are presented as the mean ± standard deviation (SD) of three independent experiments. […]
# [3] = tested on: Giardia lamblia trophozoites; assay: DNA content / cell cycle phase by flow cytometry (PI)
# Protocol: Both the GW-treated and control G. lamblia cells were analyzed for their DNA content using flow cytometry. Briefly, the harvested cells were resuspended in 50 μl TYI-S-33 culture medium and treated with 150 μl of a cell fixative (1% Triton X-100, 40 mM citric acid, 20 mM dibasic sodium phosphate, 200 mM sucrose; pH 3.0) at room temperature for 5 min. The samples were diluted with 350 μl of diluent buffer [125 mM MgCl2 in phosphate-buffered saline (PBS: 137 mM NaCl, 2.7 mM KCl, 10.1 mM Na2HPO4 and 2 mM KH2PO4, pH 7.4)] and then stored at 4 °C until use. Fixed cells were treated with 2.5 μg RNase A (Sigma-Aldrich) and 10 μg/ml propidium iodide (PI; Sigma-Aldrich) for 30 min at 37 °C. […] Along representative histograms, averages of three independent experiments were presented in bar graphs.
# Expression of GlPLK was knocked down using a morpholino, as described previously. A specific morpholino for GlPLK was designed by Gene Tools (Philomath, OR, USA) (see Table 1 for sequences). Nonspecific oligomers were used as a control morpholino (Table 1). Cells (5 × 10^6 in 0.3 ml medium) were treated with the lyophilized morpholino at a final concentration of 100 nM. After electroporation, the cells were grown for various lengths of time, ranging from 12 to 48 h, and analyzed for GlPLK inhibition by western blotting using anti-HA and anti-GlPLK antibodies. The cells at 18 h post-transfection were analyzed for their nuclear phenotypes, including the number and position of nuclei and condensation and flagella length, as described above. In addition, cells transfected with control or anti-glplk morpholino were harvested at 6 or 18 h, and then evaluated with respect to their DNA content by flow cytometry followed by analysis using FlowJo software (FlowJo Llc). […]
# These cells were then analyzed by flow cytometry to determine the ploidy of their DNA. Intracellular levels of GlPLK protein in the DMSO-treated, nocodazole-treated and nocodazole/aphidicolin-treated Giardia cells were determined by western blotting. The intracellular levels of glplk transcripts were also measured in these cells.
# [4] = tested on: Giardia lamblia trophozoites; assay: Flagella length of Giemsa-stained cells (DIC images, Fiji/ImageJ); details: 5 µM GW
# Description: To measure flagella length, we observed Giemsa-stained cells under an Axiovert 200 microscope and analyzed their differential interference contrast (DIC) images using Fiji, an open-source platform for biological-image analysis. Each of four types of flagella were divided into cytoplasmic and membrane-bound categories and then measured using the line Freehand Tracing 0mode in ImageJ software (http://imagej.nih.gov/ij/). […] Data are presented as the mean ± SD of three independent experiments.
# Expression of GlPLK was knocked down using a morpholino, as described previously. A specific morpholino for GlPLK was designed by Gene Tools (Philomath, OR, USA) (see Table 1 for sequences). Nonspecific oligomers were used as a control morpholino (Table 1). Cells (5 × 10^6 in 0.3 ml medium) were treated with the lyophilized morpholino at a final concentration of 100 nM. After electroporation, the cells were grown for various lengths of time, ranging from 12 to 48 h, and analyzed for GlPLK inhibition by western blotting using anti-HA and anti-GlPLK antibodies. The cells at 18 h post-transfection were analyzed for their nuclear phenotypes, including the number and position of nuclei and condensation and flagella length, as described above. In addition, cells transfected with control or anti-glplk morpholino were harvested at 6 or 18 h, and then evaluated with respect to their DNA content by flow cytometry followed by analysis using FlowJo software (FlowJo Llc). Transfection was performed at least five times, and the data presented were derived from three independent knockdown experiments.
structure (smiles),measurement,setting,value
"COc1cc2ncn(-c3cc(OCc4ccccc4C(F)(F)F)c(C(N)=O)s3)c2cc1OC [GW, GW843682X]",IC50,[1],7 µM
same,"Percentage of cells, 1N",[2]; 3 h,0.4±0.1%
same,"Percentage of cells, 2N, abnormal",[2]; 3 h,0.7±0.3%
same,"Percentage of cells, 2N, normal",[2]; 3 h,97.2±0.8%
same,"Percentage of cells, 3N",[2]; 3 h,0.2±0.1%
same,"Percentage of cells, 4N",[2]; 3 h,0.7±0.2%
same,"Percentage of cells, >4N",[2]; 3 h,0.8±0.3%
same,"Percentage of cells, 1N",[2]; 6 h,0.3±0.2%
same,"Percentage of cells, 2N, abnormal",[2]; 6 h,0.8±0.3%
same,"Percentage of cells, 2N, normal",[2]; 6 h,96.9±0.7%
same,"Percentage of cells, 3N",[2]; 6 h,0.3±0.1%
same,"Percentage of cells, 4N",[2]; 6 h,0.8±0.2%
same,"Percentage of cells, >4N",[2]; 6 h,0.9±0.4%
same,Percentage of cells with condensed nuclei,"[2]; 5 μM GW, 6 h, compared to DMSO-treated cells",significantly increased
same,"Percentage of cells, 1N",[2]; 9 h,1.2±0.1%
same,"Percentage of cells, 2N, abnormal",[2]; 9 h,1.3±0.3%
same,"Percentage of cells, 2N, normal",[2]; 9 h,91.7±0.1%
same,"Percentage of cells, 3N",[2]; 9 h,1.3±0.4%
same,"Percentage of cells, 4N",[2]; 9 h,3.3±0.4%
same,"Percentage of cells, >4N",[2]; 9 h,1.7±0.3%
same,"Percentage of cells, 1N",[2]; 12 h,1.2±0.1%
same,"Percentage of cells, 2N, abnormal",[2]; 12 h,1.4±0.6%
same,"Percentage of cells, 2N, normal",[2]; 12 h,91.0±1.4%
same,"Percentage of cells, 3N",[2]; 12 h,1.5±0.4%
same,"Percentage of cells, 4N",[2]; 12 h,3.1±0.9%
same,"Percentage of cells, >4N",[2]; 12 h,1.9±0.8%
same,"Percentage of cells, 1N",[2]; 15 h,1.1±0.2%
same,"Percentage of cells, 2N, abnormal",[2]; 15 h,1.6±0.5%
same,"Percentage of cells, 2N, normal",[2]; 15 h,86.1±1.4%
same,"Percentage of cells, 3N",[2]; 15 h,1.5±0.3%
same,"Percentage of cells, 4N",[2]; 15 h,6.7±0.5%
same,"Percentage of cells, >4N",[2]; 15 h,3.1±0.6%
same,"Percentage of cells, 1N",[2]; 18 h,0.9±0.3%
same,"Percentage of cells, 2N, abnormal",[2]; 18 h,0.9±0.4%
same,"Percentage of cells, 2N, normal",[2]; 18 h,88.5±1.2%
same,"Percentage of cells, 3N",[2]; 18 h,1.6±0.4%
same,"Percentage of cells, 4N",[2]; 18 h,5.4±0.8%
same,"Percentage of cells, >4N",[2]; 18 h,2.7±0.5%
same,"Percentage of cells, 1N",[2]; 24 h,1.2±0.3%
same,"Percentage of cells, 2N, abnormal",[2]; 24 h,1.6±0.5%
same,"Percentage of cells, 2N, normal",[2]; 24 h,85.6±0.5%
same,"Percentage of cells, 3N",[2]; 24 h,2.3±0.2%
same,"Percentage of cells, 4N",[2]; 24 h,6.1±0.5%
same,"Percentage of cells, >4N",[2]; 24 h,3.2±0.4%
same,Percentage of cells at G2/M phase,"[3]; 5 μM GW, 6 and 12 h, control 72–73%",86%
same,"Length of cytoplasmic part of posterolateral, anterior and caudal flagella",[4],None of the three flagella showed any significant change
same,Length of membrane-bound portion of posterolateral and ventral flagella,[4]; 18 h,did not induce a significant increase
same,Length of membrane-bound part of caudal flagella,"[4]; 18 h, DMSO 7.2 μm",11.1 µm
same,Length of membrane-bound part of anterior flagella,"[4]; 18 h, DMSO 9.0 μm",11.3 µm
COC(=O)Nc1nc2ccc(C(=O)c3cccs3)cc2[nH]1 [nocodazole],Percentage of G2/M-phase cells after synchronization,"[3]; 100 nM nocodazole, Giardia carrying pGlPLK.neo, 0.01% DMSO control 78%",91%
C[C@@]1(CO)[C@H](O)CC[C@@]2(C)[C@H]1CC[C@H]1C[C@@H]3C[C@@]12CC[C@]3(O)CO [aphidicolin],Percentage of G1/S-arrested cells after synchronization,"[3]; sequentially 100 nM nocodazole, then 6 μM aphidicolin 6 h, Giardia carrying pGlPLK.neo",86%
